This assay deals with T1, human GCGR (Homo sapiens, UniProt P47871).
T1 construct: expressed in transfected cells; assay-ready frozen cells grown with Blasticidin and Hygromycin
The assay can be described thus: cAMP activity assay, cells expressing human GCGR (HitHunter cAMP XS). In kind it is cell-based. The following applies: for hGCGR/hGLP1R (hTone): ratio of human GCGR EC50 to human GLP1R EC50; for EC50: cAMP production, 1 hour at room temperature, assay buffer with or without 20% human serum (not stated which). The procedure: Activity of the peptides at the Glucagon receptor (GCGR) and GLP-1 receptor (GLP1R) was measured in a cAMP activity assay.
Peptides were dissolved in 100% DMSO and serially diluted to generate 10 point titrations. The peptide solutions were then transferred into 384-well assay plates (150 nL/well).
Assay ready frozen cells expressing human GLP1R or human GCGR were suspended in growth media consisting of DMEM medium (GIBCO), 10% FBS (GIBCO), 1x NEAA(GIBCO), 1x P/S (GIBCO), 10ug/ml Blasticidin (GIBCO) and 200 µg/mL Hygromycin (GIBCO). Cells were then diluted in assay buffer consisting of PBS (GIBCO), 7.5% BSA (Perkin Elmer), 100 µM RO 20-1724 (Sigma), with or without 20% human serum (MP Biomedical). The cell suspensions (15 µL) were then added to the assay plates containing the peptide solutions (30,000 cells/well for human GCGR; 10.000 cells/well for human GLP1R). The cells were incubated for 1 hour at room temperature in the dark. Production of cAMP was determined using HitHunter™ cAMPXS kits (DiscoverX) following manufacturer protocol. The plates were incubated for overnight at room temperature in the dark. Luminescence was measured using an EnVision Multilabel plate reader (Perkin Elmer). Native GLP-1 and Glucagon (Bachem) are used as control peptides. EC50 values were calculated using uses a 4 parameter logistic fit based on the Levenberg-Marquardt algorithm.

This note sets out measurements from US20230270825A1, “STAPLED OLEFIN CO-AGONISTS OF THE GLUCAGON AND GLP-1 RECEPTORS” (Merck Sharp & Dohme LLC, priority 2019, published 2023).

Numbered stars: 1 amine (or outer) side, 2 acyl side, 3 side chain; on linkers, the order of the positions; unused ones are H or OH. Bridge positions count the residues as written; N and C are the ends. Square brackets hold non-standard residues; d marks the D form. Side chains are listed from the residue outwards. Peptide text beside a SMILES is read from it. * marks the point of attachment. Nle(6-ylidene) = O=C([C@H](CCCC=[*:3])N[*:1])[*:2]; S7 = C[C@@](CCCCCC=[*:3])(N[*:1])C(=O)[*:2]; X1 = C[C@](CCCCC=[*:3])(N[*:1])C(=O)[*:2]; γGlu = O=C(O)[C@H](CCC(=O)[*:2])N[*:1]; Palmitoyl = CCCCCCCCCCCCCCCC(=O)*; Aib = CC(C)(N)C(=O)O

T1 sequence (P47871 26-477): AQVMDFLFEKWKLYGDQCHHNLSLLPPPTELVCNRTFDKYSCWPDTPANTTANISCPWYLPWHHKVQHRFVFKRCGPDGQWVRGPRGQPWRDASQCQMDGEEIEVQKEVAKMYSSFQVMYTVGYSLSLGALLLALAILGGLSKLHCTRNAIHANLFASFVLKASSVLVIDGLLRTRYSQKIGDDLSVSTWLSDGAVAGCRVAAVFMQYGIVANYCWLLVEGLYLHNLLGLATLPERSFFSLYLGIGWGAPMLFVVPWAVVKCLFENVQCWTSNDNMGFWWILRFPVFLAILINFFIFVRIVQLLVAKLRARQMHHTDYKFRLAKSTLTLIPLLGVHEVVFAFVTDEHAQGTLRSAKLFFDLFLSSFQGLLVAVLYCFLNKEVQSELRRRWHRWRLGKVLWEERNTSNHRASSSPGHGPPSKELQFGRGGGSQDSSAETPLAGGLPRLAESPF

On to `CCCCCCCCCCCCCCCC(=O)N[C@@H](CCC(=O)N[C@@H](CCC(=O)NCCCC[C@H](NC(=O)[C@H](CC(=O)O)NC(=O)[C@H](CO)NC(=O)[C@@H](NC(=O)[C@H](Cc1ccccc1)NC(=O)[C@@H](NC(=O)CNC(=O)[C@H](CCC(N)=O)NC(=O)C(C)(C)NC(=O)[C@@H](N)Cc1c[nH]cn1)[C@@H](C)O)[C@@H](C)O)C(=O)N[C@@H](CO)C(=O)N[C@@H](CCCCN)C(=O)N[C@@H](Cc1ccc(O)cc1)C(=O)N[C@@H](CC(C)C)C(=O)N[C@@H](CC(=O)O)C(=O)NC(C)(C)C(=O)N[C@@H](CCCNC(=N)N)C(=O)N[C@@H](C)C(=O)N[C@@H](C)C(=O)N[C@@H](CCC(N)=O)C(=O)N[C@@H](CC(=O)O)C(=O)N[C@@H](Cc1ccccc1)C(=O)N[C@H](C(=O)N[C@H]1CCCC=CCCC[C@@H](C(=O)N[C@H](C(=O)N[C@@H](CCCCN)C(=O)N[C@@H](CCC(N)=O)C(=O)O)[C@@H](C)O)NC(=O)[C@H](CC(C)C)NC(=O)[C@H](CC(C)C)NC(=O)[C@H](Cc2c[nH]c3ccccc23)NC1=O)C(C)C)C(=O)O)C(=O)O` [compound 16] (H-H[Aib]QGTFTSDK([γGlu-γGlu-Palmitoyl])SKYLD[Aib]RAAQDFV[Nle(6-ylidene)]WLL[Nle(6-ylidene)]TKQ-OH; staple 24-28), for which the “hGCGR/hGLP1R (hTone)” value turned out to be 2.67.

Usually EC50 stands for the concentration at which the effect is half-maximal. Higher therefore signals lower potency in that assay. The molecule `CCCCCCCCCCCCCCCC(=O)N[C@@H](CCC(=O)N[C@@H](CCC(=O)NCCCC[C@H](NC(=O)[C@H](CC(=O)O)NC(=O)[C@H](CO)NC(=O)[C@@H](NC(=O)[C@H](Cc1ccccc1)NC(=O)[C@@H](NC(=O)CNC(=O)[C@H](CCC(N)=O)NC(=O)[C@@H](CO)NC(=O)[C@@H](N)Cc1c[nH]cn1)[C@@H](C)O)[C@@H](C)O)C(=O)N[C@@H](CO)C(=O)N[C@@H](CCCCN)C(=O)N[C@@H](Cc1ccc(O)cc1)C(=O)N[C@@H](CC(C)C)C(=O)N[C@@H](CC(=O)O)C(=O)N[C@@H](CCC(=O)O)C(=O)N[C@]1(C)CCCCC=CCCCCC[C@@](C)(C(=O)N[C@@H](Cc2c[nH]c3ccccc23)C(=O)N[C@@H](CC(C)C)C(=O)N[C@@H](CC(C)C)C(=O)N[C@@H](CC(=O)O)C(=O)N[C@H](C(N)=O)[C@@H](C)O)NC(=O)[C@H](C(C)C)NC(=O)[C@H](Cc2ccccc2)NC(=O)[C@H](CC(=O)O)NC(=O)[C@H](CCC(N)=O)NC(=O)[C@H](C)NC(=O)[C@H](C)NC1=O)C(=O)O)C(=O)O` [compound 8] (H-H[dS]QGTFTSDK([γGlu-γGlu-Palmitoyl])SKYLDE[X1]AAQDFV[S7]WLLDT-NH2; staple 17-24) returned an EC50 of 5 nM.

Turning to `CCCCCCCCCCCCCCCC(=O)N[C@@H](CCC(=O)N[C@@H](CCC(=O)NCCCC[C@H](NC(=O)[C@H](CC(=O)O)NC(=O)[C@H](CO)NC(=O)[C@@H](NC(=O)[C@H](Cc1ccccc1)NC(=O)[C@@H](NC(=O)CNC(=O)[C@H](CCC(N)=O)NC(=O)C(C)(C)NC(=O)[C@@H](N)Cc1c[nH]cn1)[C@@H](C)O)[C@@H](C)O)C(=O)N[C@@H](CO)C(=O)N[C@@H](CCCCN)C(=O)N[C@@H](Cc1ccc(O)cc1)C(=O)N[C@@H](CC(C)C)C(=O)N[C@@H](CC(=O)O)C(=O)NC(C)(C)C(=O)N[C@@H](CCCNC(=N)N)C(=O)N[C@@H](C)C(=O)N[C@@H](C)C(=O)N[C@@H](CCC(N)=O)C(=O)N[C@]1(C)CCCCC=CCCCCC[C@@](C)(C(=O)N[C@H](C(=O)N[C@@H](CCCCN)C(=O)N[C@@H](CCC(N)=O)C(=O)O)[C@@H](C)O)NC(=O)[C@H](CCSC)NC(=O)[C@H](CC(C)C)NC(=O)[C@H](Cc2c[nH]c3ccccc23)NC(=O)[C@H](CCC(N)=O)NC(=O)[C@H](C(C)C)NC(=O)[C@H](Cc2ccccc2)NC1=O)C(=O)O)C(=O)O` [compound 13] (H-H[Aib]QGTFTSDK([γGlu-γGlu-Palmitoyl])SKYLD[Aib]RAAQ[X1]FVQWLM[S7]TKQ-OH; staple 21-28), the 50% effective concentration (EC50) came to 5 nM and the “hGCGR/hGLP1R (hTone)” value is on record as 19.11.

Turning to `CCCCCCCCCCCCCCCC(=O)N[C@@H](CCC(=O)N[C@@H](CCC(=O)NCCCC[C@H](NC(=O)[C@H](CC(=O)O)NC(=O)[C@H](CO)NC(=O)[C@@H](NC(=O)[C@H](Cc1ccccc1)NC(=O)[C@@H](NC(=O)CNC(=O)[C@H](CCC(N)=O)NC(=O)[C@@H](CO)NC(=O)[C@@H](N)Cc1c[nH]cn1)[C@@H](C)O)[C@@H](C)O)C(=O)N[C@@H](CO)C(=O)N[C@@H](CCCCN)C(=O)N[C@@H](Cc1ccc(O)cc1)C(=O)N[C@@H](CC(C)C)C(=O)N[C@@H](CC(=O)O)C(=O)N[C@@H](CCC(=O)O)C(=O)N[C@@H](CCCNC(=N)N)C(=O)N[C@@H](C)C(=O)N[C@@H](C)C(=O)N[C@]1(C)CCCCC=CCCCCC[C@@](C)(C(=O)N[C@@H](CC(=O)O)C(=O)N[C@H](C(N)=O)[C@@H](C)O)NC(=O)[C@H](CC(C)C)NC(=O)[C@H](Cc2c[nH]c3ccccc23)NC(=O)[C@H](CCC(N)=O)NC(=O)[C@H](C(C)C)NC(=O)[C@H](Cc2ccccc2)NC(=O)[C@H](CC(=O)O)NC1=O)C(=O)O)C(=O)O` [compound 10] (H-H[dS]QGTFTSDK([γGlu-γGlu-Palmitoyl])SKYLDERAA[X1]DFVQWL[S7]DT-NH2; staple 20-27), the “hGCGR/hGLP1R (hTone)” value came out at 19.02.

As to `CCCCCCCCCCCCCCCC(=O)N[C@@H](CCC(=O)N[C@@H](CCC(=O)NCCCC[C@H](NC(=O)[C@H](CC(=O)O)NC(=O)[C@H](CO)NC(=O)[C@@H](NC(=O)[C@H](Cc1ccccc1)NC(=O)[C@@H](NC(=O)CNC(=O)[C@H](CCC(N)=O)NC(=O)[C@@H](CO)NC(=O)[C@@H](N)Cc1c[nH]cn1)[C@@H](C)O)[C@@H](C)O)C(=O)N[C@@H](CO)C(=O)N[C@@H](CCCCN)C(=O)N[C@@H](Cc1ccc(O)cc1)C(=O)N[C@@H](CC(C)C)C(=O)N[C@@H](CC(=O)O)C(=O)N[C@@H](CCC(=O)O)C(=O)N[C@@H](CCCNC(=N)N)C(=O)N[C@@H](C)C(=O)N[C@@H](C)C(=O)N[C@H]1CCCC=CCCC[C@@H](C(=O)N[C@@H](Cc2c[nH]c3ccccc23)C(=O)N[C@@H](CC(C)C)C(=O)N[C@@H](CC(C)C)C(=O)N[C@@H](CC(=O)O)C(=O)N[C@H](C(N)=O)[C@@H](C)O)NC(=O)[C@H](C(C)C)NC(=O)[C@H](Cc2ccccc2)NC(=O)[C@H](CC(=O)O)NC1=O)C(=O)O)C(=O)O` [compound 15] (H-H[dS]QGTFTSDK([γGlu-γGlu-Palmitoyl])SKYLDERAA[Nle(6-ylidene)]DFV[Nle(6-ylidene)]WLLDT-NH2; staple 20-24), the “hGCGR/hGLP1R (hTone)” value turned out to be 0.44.

Take `CC(C)C[C@H](NC(=O)[C@H](Cc1ccc(O)cc1)NC(=O)[C@H](CCCCN)NC(=O)[C@H](CO)NC(=O)[C@H](CCCCN)NC(=O)[C@H](CC(=O)O)NC(=O)[C@H](CO)NC(=O)[C@@H](NC(=O)[C@H](Cc1ccccc1)NC(=O)[C@@H](NC(=O)CNC(=O)[C@H](CCC(N)=O)NC(=O)[C@@H](CO)NC(=O)[C@@H](N)Cc1c[nH]cn1)[C@@H](C)O)[C@@H](C)O)C(=O)N[C@@H](CC(=O)O)C(=O)N[C@@H](CCC(=O)O)C(=O)N[C@@H](CCCNC(=N)N)C(=O)N[C@@H](C)C(=O)N[C@@H](C)C(=O)N[C@]1(C)CCCCC=CCCCCC[C@@](C)(C(=O)N[C@@H](CC(=O)O)C(=O)N[C@H](C(N)=O)[C@@H](C)O)NC(=O)[C@H](CC(C)C)NC(=O)[C@H](Cc2c[nH]c3ccccc23)NC(=O)[C@H](CCC(N)=O)NC(=O)[C@H](C(C)C)NC(=O)[C@H](Cc2ccccc2)NC(=O)[C@H](CC(=O)O)NC1=O` [compound 11] (H-H[dS]QGTFTSDKSKYLDERAA[X1]DFVQWL[S7]DT-NH2; staple 20-27): it took 5 nM to reach a half-maximal effect (EC50) and the “hGCGR/hGLP1R (hTone)” value is given as 1.82.
